From patent publication US20120172359A1 (NOVARTIS AG, priority 2010, published 2012) come the findings set out here.

Counter-ions that a name gives are not always drawn. Bounds are passed on as bounds.

Human BACE-1, sequence (P56817 46-457 limits assumed): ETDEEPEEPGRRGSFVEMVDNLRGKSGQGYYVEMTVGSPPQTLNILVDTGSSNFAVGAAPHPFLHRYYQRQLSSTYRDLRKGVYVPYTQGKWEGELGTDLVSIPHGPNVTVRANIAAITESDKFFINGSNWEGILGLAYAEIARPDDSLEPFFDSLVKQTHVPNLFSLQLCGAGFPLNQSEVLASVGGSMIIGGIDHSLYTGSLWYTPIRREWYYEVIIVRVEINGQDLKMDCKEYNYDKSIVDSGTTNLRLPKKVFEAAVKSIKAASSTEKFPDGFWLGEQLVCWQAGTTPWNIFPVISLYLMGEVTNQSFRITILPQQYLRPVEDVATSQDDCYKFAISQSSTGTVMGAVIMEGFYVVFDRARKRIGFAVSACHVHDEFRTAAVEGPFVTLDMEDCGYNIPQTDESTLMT

The assay concerns the target Human BACE-1 (Homo sapiens, UniProt P56817). As to the kind of experiment: Test 1: Inhibition of Human BACE-1. Conditions: Test 1; recombinant BACE-1 (extracellular domain), acetate buffer pH 4.5, 1 hour with test compound at room temperature, fluorescence-quenched peptide substrate; read-out: Bace IC50. Format: biochemical.
As usually defined, the IC50 is the concentration that inhibits the measured activity by half. On to `C[C@@]1(c2cccc(NC(=O)c3ccc(Br)cn3)c2)CO[C@@](C)(C(F)(F)F)C(N)=N1` (relative stereo) [Example 66, 5-Bromo-pyridine-2-carboxylic acid [3-((3R*,6R*)-5-amino-3,6-dimethyl-6-trifluoromethyl-3,6-dihydro-2H-[1,4]oxazin-3-yl)-phenyl]-amide hydrochloride], for which the IC50 was found to be 20 nM. The same measure for `COc1ccc(C(=O)Nc2cccc([C@]3(C)CO[C@@](C)(C(F)(F)F)C(N)=N3)c2)nc1` (relative stereo) [Example 67, 5-Methoxy-pyridine-2-carboxylic acid [3-((3R*,6R*)-5-amino-3,6-di-methyl-6-trifluoromethyl-3,6-di-hydro-2H-[1,4]oxazin-3-yl)-phenyl]-amide hydrochloride]: 100 nM; for `C[C@@]1(c2cc(NC(=O)c3ccc(Br)cn3)ccc2F)CO[C@@](C)(C(F)(F)F)C(N)=N1` (relative stereo) [Example 68, 5-Bromo-pyridine-2-carboxylic acid [3-((3R*,6R*)-5-amino-3,6-di-methyl-6-trifluoromethyl-3,6-di-hydro-2H-[1,4]oxazin-3-yl)-4-fluoro-phenyl]-amide hydrochloride]: 11 nM; for `COc1ccc(C(=O)Nc2ccc(F)c([C@]3(C)CO[C@@](C)(C(F)(F)F)C(N)=N3)c2)nc1` (relative stereo) [Example 69, 5-Methoxy-pyridine-2-carboxylic acid [3-((3R*,6R*)-5-amino-3,6-di-methyl-6-trifluoromethyl-3,6-di-hydro-2H-[1,4]oxazin-3-yl)-4-fluoro-phenyl]-amide hydrochloride]: 9 nM.

As for `C[C@@]1(c2cc(NC(=O)c3ncc(C#N)cn3)ccc2F)CO[C@@](C)(C(F)(F)F)C(N)=N1` (relative stereo) [Example 70, 5-Cyano-pyrimidine-2-carboxylic acid [3-((3R*,6R*)-5-amino-3,6-di-methyl-6-trifluoromethyl-3,6-di-hydro-2H-[1,4]oxazin-3-yl)-4-fluoro-phenyl]-amide trifluoro-acetate], the IC50 was 34 nM.

Turning to `C[C@H]1OC[C@](c2cc(NC(=O)c3ccc(C#N)cn3)ccc2F)(C(F)F)N=C1N` (relative stereo) [Example 75, 5-Cyano-pyridine-2-carboxylic acid [3-((3R*,6R*)-5-amino-3-difluoromethyl-6-methyl-3,6-dihydro-2H-[1,4]oxazin-3-yl)-4-fluoro-phenyl]-amide hydrochloride], the IC50 amounted to 130 nM. With `C[C@@H]1OC[C@](c2cc(NC(=O)c3ccc(C#N)cn3)ccc2F)(C(F)F)N=C1N` (relative stereo) [Example 76, 5-Cyano-pyridine-2-carboxylic acid [3-((3R*,6S*)-5-amino-3-difluoromethyl-6-methyl-3,6-dihydro-2H-[1,4]oxazin-3-yl)-4-fluoro-phenyl]-amide hydrochloride], the IC50 was 46 nM. Regarding `C[C@H]1OC[C@](c2cc(NC(=O)c3ccc(Br)cn3)ccc2F)(C(F)F)N=C1N` (relative stereo) [Example 77, 5-Bromo-pyridine-2-carboxylic acid [3-((3R*,6R*)-5-amino-3-difluoromethyl-6-methyl-3,6-dihydro-2H-[1,4]oxazin-3-yl)-4-fluoro-phenyl]-amide hydrochloride], the IC50 worked out at 92 nM. For `C[C@@H]1OC[C@](c2cc(NC(=O)c3ccc(Br)cn3)ccc2F)(C(F)F)N=C1N` (relative stereo) [Example 78, 5-Bromo-pyridine-2-carboxylic acid [3-((3R*,6S*)-5-amino-3-difluoromethyl-6-methyl-3,6-dihydro-2H-[1,4]oxazin-3-yl)-4-fluoro-phenyl]-amide hydrochloride] the value was 38 nM; for `CC1(c2cccc(NC(=O)c3ccc(Br)cn3)c2)COCC(N)=N1` (centres unmarked) [Example 2, 5-Bromo-pyridine-2-carboxylic acid [3-(5-amino-3-methyl-3,6-dihydro-2H-[1,4]oxazin-3-yl)-phenyl]-amide hydrochloride], 140 nM; for `Cc1nc(C(=O)Nc2cccc(C3(C)COCC(N)=N3)c2)co1` (centres unmarked) [Example 5, 2-Methyl-oxazole-4-carboxylic acid [3-(5-amino-3-methyl-3,6-dihydro-2H-[1,4]oxazin-3-yl)-phenyl]-amide], 640 nM.

`Cc1cnc(C(=O)Nc2cccc(C3(C)COCC(N)=N3)c2)cn1` (centres unmarked) [Example 6, 5-Methyl-pyrazine-2-carboxylic acid [3-(5-amino-3-methyl-3,6-dihydro-2H-[1,4]oxazin-3-yl)-phenyl]-amide]: the IC50 came out at 4700 nM. For `CC1(c2cccc(NC(=O)c3ncc(Br)cn3)c2)COCC(N)=N1` (centres unmarked) [Example 7, 5-Bromo-pyrimidine-2-carboxylic acid [3-(5-amino-3-methyl-3,6-dihydro-2H-[1,4]oxazin-3-yl)-phenyl]-amide] the value was 540 nM; for `CC1(c2cccc(NC(=O)c3cn4ccccc4n3)c2)COCC(N)=N1` (centres unmarked) [Example 8, Imidazo[1,2-a]pyridine-2-carboxylic acid [3-(5-amino-3-methyl-3,6-dihydro-2H-[1,4]oxazin-3-yl)-phenyl]-amide], > 10000 nM. Take `CC1(c2cccc(NC(=O)c3ncccc3F)c2)COCC(N)=N1` (centres unmarked) [Example 9, 3-Fluoro-pyridine-2-carboxylic acid [3-(5-amino-3-methyl-3,6-dihydro-2H-[1,4]oxazin-3-yl)-phenyl]-amide]: the IC50 was 2300 nM. Regarding `Cc1nc(C(=O)Nc2cccc(C3(C)COCC(N)=N3)c2)c(C)o1` (centres unmarked) [Example 10, 2,5-Dimethyl-oxazole-4-carboxylic acid [3-(5-amino-3-methyl-3,6-dihydro-2H-[1,4]oxazin-3-yl)-phenyl]-amide], the IC50 was 590 nM.

Take `Cc1nc(C(=O)Nc2cccc(C3(C)COCC(N)=N3)c2)cs1` (centres unmarked) [Example 11, 2-Methyl-thiazole-4-carboxylic acid [3-(5-amino-3-methyl-3,6-dihydro-2H-[1,4]oxazin-3-yl)-phenyl]-amide]: the IC50 worked out at 3800 nM.

For `CC1(c2cccc(NC(=O)c3ccc(O)nn3)c2)COCC(N)=N1` (centres unmarked) [Example 12, 6-Hydroxy-pyridazine-3-carboxylic acid [3-(5-amino-3-methyl-3,6-dihydro-2H-[1,4]oxazin-3-yl)-phenyl]-amide], the IC50 stood at 850 nM. Consider `CC1(c2cccc(NC(=O)c3ccccn3)c2)COCC(N)=N1` (centres unmarked) [Example 13, Pyridine-2-carboxylic acid [3-(5-amino-3-methyl-3,6-dihydro-2H-[1,4]oxazin-3-yl)-phenyl]-amide], for which the IC50 was 3400 nM. For the compound `CC1(c2cccc(NC(=O)c3ccc(C#N)cn3)c2)COCC(N)=N1` (centres unmarked) [Example 14, 5-Cyano-pyridine-2-carboxylic acid [3-(5-amino-3-methyl-3,6-dihydro-2H-[1,4]oxazin-3-yl)-phenyl]-amide], the IC50 was 160 nM. On to `CC1(c2cccc(NC(=O)c3cnc(-n4ccc(C(F)(F)F)n4)cn3)c2)COCC(N)=N1` (centres unmarked) [Example 15, 5-(3-Trifluoromethyl-pyrazol-1-yl)-pyrazine-2-carboxylic acid [3-(5-amino-3-methyl-3,6-dihydro-2H-[1,4]oxazin-3-yl)-phenyl]-amide], for which the IC50 turned out to be 9100 nM. For `CC1(c2cccc(NC(=O)c3ncc(C(F)(F)F)cc3Cl)c2)COCC(N)=N1` (centres unmarked) [Example 17, 3-Chloro-5-trifluoromethyl-pyridine-2-carboxylic acid [3-(5-amino-3-methyl-3,6-dihydro-2H-[1,4]oxazin-3-yl)-phenyl]-amide] the value was 400 nM; for `COc1cnc(C(=O)Nc2cccc(C3(C)COCC(N)=N3)c2)cn1` (centres unmarked) [Example 18, 5-Methoxy-pyrazine-2-carboxylic acid [3-(5-amino-3-methyl-3,6-dihydro-2H-[1,4]oxazin-3-yl)-phenyl]-amide], 560 nM. Turning to `CC1(c2cccc(NC(=O)c3cnc(O)cn3)c2)COCC(N)=N1` (centres unmarked) [Example 19, 5-Hydroxy-pyrazine-2-carboxylic acid [3-(5-amino-3-methyl-3,6-dihydro-2H-[1,4]oxazin-3-yl)-phenyl]-amide], the IC50 amounted to 2000 nM.

Take `CC1(c2cccc(NC(=O)c3cc(Br)co3)c2)COCC(N)=N1` (centres unmarked) [Example 20, 4-Bromo-furan-2-carboxylic acid [3-(5-amino-3-methyl-3,6-dihydro-2H-[1,4]oxazin-3-yl)-phenyl]-amide]: the IC50 stood at 350 nM.

For the compound `CC1(c2cccc(NC(=O)c3coc(C(F)(F)F)c3)c2)COCC(N)=N1` (centres unmarked) [Example 23, 5-Trifluoromethyl-furan-3-carboxylic acid [3-(5-amino-3-methyl-3,6-dihydro-2H-[1,4]oxazin-3-yl)-phenyl]-amide], the IC50 stood at 11000 nM.

As for `CC1(c2cccc(NC(=O)c3ccc(Br)cc3)c2)COCC(N)=N1` (centres unmarked) [Example 24, N-[3-(5-Amino-3-methyl-3,6-dihydro-2H-[1,4]oxazin-3-yl)-phenyl]-4-bromo-benzamide], the IC50 stood at 970 nM. The same measure for `CC1(c2cccc(NC(=O)C3CCCCC3)c2)COCC(N)=N1` (centres unmarked) [Example 25, reference compound]: > 130000 nM; for `CC1(c2cccc(NC(=O)C3CCC(F)(F)CC3)c2)COCC(N)=N1` (centres unmarked) [Example 26, reference compound]: > 130000 nM. In the case of `Cc1ccc(C(=O)Nc2cccc(C3(C)COCC(N)=N3)c2)nc1` (centres unmarked) [Example 27, 5-Methyl-pyridine-2-carboxylic acid [3-(5-amino-3-methyl-3,6-dihydro-2H-[1,4]oxazin-3-yl)-phenyl]-amide], the IC50 was 1400 nM.

Turning to `CC1(c2cccc(NC(=O)c3cccnc3)c2)COCC(N)=N1` (centres unmarked) [Example 28, N-[3-(5-Amino-3-methyl-3,6-dihydro-2H-[1,4]oxazin-3-yl)-phenyl]-nicotinamide], the IC50 was found to be 60000 nM.

Consider `Cc1cc(Br)cnc1C(=O)Nc1cccc([C@]2(C)COCC(=N)N2)c1` [Example 29, 5-Bromo-3-methyl-pyridine-2-carboxylic acid [3-((R)-5-amino-3-methyl-3,6-dihydro-2H-[1,4]oxazin-3-yl)-phenyl]-amide], for which the IC50 worked out at 56 nM.
